US8383642B2, “Spiropiperidine compounds” (Eli Lilly and Company, priority 2009, dated 2013)

Experiments:
PPARδ = molecular target: T1, PPARδ (Homo sapiens, UniProt Q03181); test: PPARδ binding assay (SPA); settings: concentrations up to 10 μM
T1 construct: made in house; host or cells: HEK293 (cell lysates)
T1 sequence (Q03181 1-441): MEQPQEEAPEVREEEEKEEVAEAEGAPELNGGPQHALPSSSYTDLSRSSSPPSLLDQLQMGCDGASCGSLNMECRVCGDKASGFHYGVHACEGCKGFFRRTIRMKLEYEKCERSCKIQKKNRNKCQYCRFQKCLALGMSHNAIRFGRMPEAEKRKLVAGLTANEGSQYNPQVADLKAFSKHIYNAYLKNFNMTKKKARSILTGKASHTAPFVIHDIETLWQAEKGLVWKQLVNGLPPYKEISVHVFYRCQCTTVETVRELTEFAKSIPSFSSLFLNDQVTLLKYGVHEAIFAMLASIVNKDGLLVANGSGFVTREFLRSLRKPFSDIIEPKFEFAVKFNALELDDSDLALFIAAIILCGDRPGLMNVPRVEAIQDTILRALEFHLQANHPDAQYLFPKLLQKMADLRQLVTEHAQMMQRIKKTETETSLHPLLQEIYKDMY
T1 sequence (P19793 1-462 partner): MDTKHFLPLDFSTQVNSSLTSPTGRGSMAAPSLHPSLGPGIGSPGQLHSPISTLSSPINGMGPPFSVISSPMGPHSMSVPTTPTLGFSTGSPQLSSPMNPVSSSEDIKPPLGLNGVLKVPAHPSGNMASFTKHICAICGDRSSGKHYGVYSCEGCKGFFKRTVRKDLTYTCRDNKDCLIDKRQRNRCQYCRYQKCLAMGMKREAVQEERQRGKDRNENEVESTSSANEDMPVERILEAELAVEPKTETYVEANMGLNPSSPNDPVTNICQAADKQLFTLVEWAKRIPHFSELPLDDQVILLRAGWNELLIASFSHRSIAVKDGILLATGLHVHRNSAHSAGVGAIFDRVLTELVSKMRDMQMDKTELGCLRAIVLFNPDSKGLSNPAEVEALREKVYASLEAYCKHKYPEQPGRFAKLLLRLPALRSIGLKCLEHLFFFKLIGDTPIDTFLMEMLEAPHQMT
Experimental: Because GPR40 is known to be activated by ligands to PPARγ exemplified compounds are examined in PPARα, PPARδ, and PPARγ binding and functional assays to determine the selectivity of exemplified compounds for GPR40. Compounds exemplified herein are tested essentially as described below for PPAR binding and generally have binding values greater than 1000 nM with 10 μM concentrations of test compound and are thus considered negative for PPAR activity.
Binding affinities of compounds for the PPAR α, δ, and γ receptors are assessed using Scintillation Proximity Assay (SPA) technology. Biotinylated oligonucleotide Direct Repeat 2 (DR2) is used for binding the receptors to Yttrium silicate streptavidin-coated SPA beads. […] Non-specific binding is determined in the presence of 10,000 nM of the unlabeled PPAR α/δ dual agonist reference compound for the alpha and delta receptor assays and the PPARγ agonist reference compound for the gamma receptor assay. The binding reaction (100 μl per well in a 96 well [Costar 3632] plate) is incubated for 10 h and counted disintegration per minutes (dpm) on a Wallac Microbeta. Receptor binding affinity (IC50) for the compounds is determined by fitting an 11 point concentration-response curve with a 4-parameter logistic equation. Ki, is determined from the IC50 using the Cheng-Prussoff equation and Kd determined by saturation binding. […]

Gal4 PPARδ = molecular target: T2, Gal4 PPARδ (Homo sapiens, UniProt Q03181); test: Gal4 PPARδ reporter functional assay (CTF); format: cell-based; settings: examined up to 10 μM; CV1 cells; luciferase
T2 construct: expressed in transfected cells; host or cells: CV1 (African green monkey kidney)
T2 sequence (Q03181 211-439 limits assumed): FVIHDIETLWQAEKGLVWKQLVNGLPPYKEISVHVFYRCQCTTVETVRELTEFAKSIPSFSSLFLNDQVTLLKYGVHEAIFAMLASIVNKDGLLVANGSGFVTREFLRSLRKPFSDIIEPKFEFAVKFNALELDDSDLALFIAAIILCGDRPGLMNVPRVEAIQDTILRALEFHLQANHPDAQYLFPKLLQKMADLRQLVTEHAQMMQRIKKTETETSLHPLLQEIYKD
Description: Gal4 PPARα, Gal4 PPARδ, and PPARγ reporter functional assays are also used to monitor the selectivity of exemplified compounds. CV1 cells, which are derived from the renal tissue of an African green monkey, are transfected with various receptor and reporter plasmids using Fugene. For the Gal4 PPARα and PPARδ assays, a reporter plasmid containing five tandem copies of the yeast transcription protein Gal4 response element, cloned upstream of a firefly luciferase gene driven by the major late promoter of adenovirus, is transfected together with a Simian Virus 40 (SV40) driven plasmid constitutively expressing a hybrid protein containing the Gal4 DNA binding domain (DBD), and either the PPARα or PPARδ ligand binding. For the PPARγ assay, plasmids encoding PPARγ and RXRα, both driven by a cytomegalovirus (CMV) promoter are transfected together with a plasmid containing luciferase reporter cDNA driven by the TK promoter and a receptor response element (2×PPRE). Cells are transfected in T225 cm^2 cell culture flasks in DMEM media with 5% charcoal-stripped FBS. […] After 24 hours incubation with compounds, cells are lysed and luciferase activity is determined as a measure of receptor activation by luminescence. […] The maximum percent stimulation is determined versus maximum stimulation obtained with 10 μM of an appropriate PPAR agonist reference compound. […]

With CC#C[C@@H](CC(=O)O)c1ccc(OCc2ccc(CN3CCC4(C=Cc5ccccc54)CC3)cc2)cc1 [Example 1, (3S)-3-(4-{[4-(1′H-Spiro[indene-1,4′-piperidin]-1′-ylmethyl)benzyl]oxy}phenyl)hex-4-ynoic acid] the binding detected (PPARδ) was “no binding is detected” and the functional activation (Gal4 PPARδ) was “No functional activation”.
